Tests used:
Visna-Virus = experiment: Visna virus test in cell culture (inhibition of virus-induced cytopathic effect, method of Narayan et al.); type: cell-based; conditions: Visna-virus-infected cell cultures treated with the compound at non-cytotoxic concentrations
Description: In Zellkulturen, die mit Visna-Virus infiziert sind, treten 5 bis 10 Tage nach der Infektion ausgeprägte virusinduzierte, zytopathische Effekte auf. Durch Behandlung der infizierten Zellkulturen mit 9-(2,3-Anhydro-β-D-lyxofuranosyl)adenin konnte das Auftreten dieser zytopathischen Effekte verhindert werden. Der Visna-Virus-Test wurde nach der Methode von O. Narayan et al., Journal of Infectious Dieseases 135, 5, 1977, 800-806 durchgeführt. Dazu wurde 9-(2,3-Anhydro-β-D-lyxofuranosyl)adenin - in Produktionsmedium gelöst - in nicht zytotoxischen Konzentrationen in 96er Microtiterplatten verdünnt. Anschließend wurden Fibroblastenzellen vom Schaf (5 x 10⁴ Zellen pro Napf) - in Produktionsmedium suspendiert - zu jedem Näpfchen zugeführt. Jedes Näpfchen erhielt dann 50 µl einer Visna-Viruslösung mit einer Titer von ca. 2,5 x 10⁴ TCID₅₀ (TCID = tissue culture infectious dose). Diese Virusdosis entspricht einer MOI (Multiplizität der Infektion) von ca. 0,05.
Unter diesen Infektionsbedingungen resultierte zwischen Tag 5 und Tag 10 in einer Infektionskontrolle ohne Substanz ein virusinduzierter, zytopathischer Effekt. Die infizierten und behandelten Zellen und die Kontrollzellen wurden 7 Tage bei 37°C, 5 % CO₂ inkubiert. […]

T-Zellen = experiment: Further studies: influence on the function of T cells; type: cell-based; conditions: no method or concentration given

For Nc1ncnc2c1ncn2[C@@H]1O[C@H](CO)[C@@H]2O[C@@H]21 [9-(2,3-Anhydro-β-D-lyxofuranosyl)adenin], the “Auftreten der virusinduzierten zytopathischen Effekte” value (Visna-Virus) was “verhindert” and the “Funktion von T-Zellen” value (T-Zellen) was “nicht beeinflußt”.
